Patent publication US5070210A, “Novel ketenimines as intermediates for insecticides” (ICI Americas Inc., priority 1990, dated 1991)

Columns and labels:
Assay type in all cases: in vivo
[1] = test system: Housefly [Musca domestica]; experiment: Housefly insecticidal test; settings: μg per 25 female flies; mortality after 48 hours
Method in brief: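 Dry-film exposure of 25 female houseflies per cage, 48 h; LC50 as μg per 25 flies.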

[2] = test system: Tobacco Budworm [Heliothis virescens (Fabricius)] larvae; experiment: Tobacco budworm contact test; settings: second-instar larvae, percent in solution, 5 days
Method in brief: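 Cotton cotyledons dipped 2–3 s in compound in 50-50 acetone-water, dried, then infested with 5 second-instar larvae and held 5 days at high humidity. Mortality scored; LC50 from dosage-mortality curves, expressed as percent compound in solution, concentrations from 0.1% downward.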

[3] = test system: Tobacco Budworm [Heliothis virescens (Fabricius)] eggs; experiment: Tobacco budworm egg test; settings: 2-day old eggs, percent in solution
Method in brief: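 Paper towel patches bearing 2-day old eggs were dipped in acetone solutions of compound, then set in petri dishes over larval rearing medium at 78° F. Mortality was scored once all control eggs had hatched and larvae were feeding. LC50, from dosage-mortality curves, is given as percent compound in solution.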

[4] = test system: Beet Armyworm (Spodoptera exigua); experiment: Beet armyworm insecticidal test; settings: second-instar larvae, percent in solution; five days
Method in brief: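 Five second-instar larvae per dish fed on dried sugar beet leaves previously dipped 2–3 s in acetone-water (1:1) test solutions up to 0.1%. Kept at high humidity, with deaths counted after five days; LC50 as % in solution via dosage-mortality curves.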

[5] = test system: Cabbage Looper [Trichoplusia ni (Hubner)]; experiment: Cabbage looper insecticidal test; settings: second-instar larvae, percent in solution; 3-5 days
Method in brief: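 Compounds in 50-50 acetone-water were applied by dipping squash cotyledons (about 1×1.5 in) for 2-3 s; dried leaves went into petri dishes on moist filter paper with 5 second-instar larvae under high humidity. Mortality was scored after 3-5 days; LC50 from dosage-mortality curves, as percent compound in solution.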

[6] = test system: Aster Leafhopper [Macrosteles fascifrens (Stal)]; experiment: Aster leafhopper insecticidal test; settings: adults/nymphs, percent in solution; 48 hours
Method in brief: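 LC50 values, given as percent of test compound in the dip solution, were derived from dosage-mortality curves over concentrations from 0.05% downward. Mortality was counted 48 hours after ten leafhopper adults/nymphs were enclosed on treated seedlings. The seedlings were oats, about 10 cm tall, briefly dipped in 50-50 acetone-water.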

[7] = test system: Rice water weevil [Lissorhoptrus oryzophilus (Kuschel)]; experiment: Rice water weevil insecticidal test; settings: topical, μg per weevil; 48 hours
Description: The compounds in Tables 1 and 2 above were tested for insecticidal activity using the following testing procedures. LC50 values, based on the results of these tests and calculated according to dosage-mortality curves, are expressed in Table 3.
Rice water weevil [Lissorhoptrus oryzophilus (Kuschel)]:
Test compounds were diluted in acetone. Droplets (1 μl) of test solutions were applied to the ventral abdomens of ten female adult weevils. The treated weevils were placed in containers with wet cotton balls and rice foliage. The containers were covered and kept at a temperature of about 25° C. Mortality was recorded after 48 hours. Test concentrations ranged from […] or 2.5 μg per weevil down to that at which 50% mortality occurred. The LC50 values are expressed below in Table 3 under the heading "RWW" in terms of μg of test compound per weevil.

[8] = test system: Maize weevil [Sitophilus Zeamais (Motschulsky)]; experiment: Maize weevil insecticidal test; settings: adult weevils, percent in solution; 48 hours
Method in brief: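 LC50, in percent of compound in solution, was derived from dosage-mortality curves after 48 h at about 25 °C. Ten adult weevils per container fed on four corn seeds briefly immersed in acetone:water (50:50) solutions of up to 0.01% and dried.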

Row | Compound | LC50, HF [1] | LC50, TBW, C (TBW-C) [2] | LC50, TBW, E (TBW-E) [3] | LC50, BAW [4] | LC50, CL [5] | LC50, LH [6] | LC50, RWW [7] | LC50, MW [8]
1 | CC(C)C(=Nc1cc(F)cc(F)c1)OCc1cccc(Oc2ccccc2)c1 [Compound 55] | > 100 µg | 0.004% | 0.06% | 0.006% | 0.0017% | 0.0005% | > 2.5 µg | 
2 | CC(C)C(=Nc1ccc(F)c(Cl)c1)OCc1cccc(Oc2ccccc2)c1 [Compound 81] | 4 µg | 0.0009% | 0.007% | 0.003% | 0.0006% | 0.0003% | > 0.5 µg | 0.005%
3 | CC(C)C(=Nc1ccc(F)c(Cl)c1)OCc1ccc(F)c(Oc2ccccc2)c1 [Compound 82] | 2.5 µg | 0.0008% | 0.006% | 0.0025% | 0.00018% | 0.0001% | 0.086 µg | 
4 | CC(C)C(=Nc1ccc(F)c(Cl)c1)OCc1cccc(Oc2ccc(F)cc2)c1 [Compound 89] | 5 µg | 0.0005% | 0.04% | 0.009% | 0.00003% | 0.001% | > 2.5 µg | 0.005%
5 | CC(C)C(=Nc1ccc2c(c1)OCO2)OCc1cccc(Oc2ccccc2)c1 [Compound 180] | 2 µg | 0.003% | 0.03% | 0.005% | 0.0004% | 0.0015% | > 2.5 µg | 0.008%
6 | CC(C)C(=Nc1ccc2c(c1)OCO2)OCc1ccc(F)c(Oc2ccccc2)c1 [Compound 181] | 25 µg | 0.001% | 0.01% | 0.001% | 0.0005% |  | > 2.5 µg | 0.005%
7 | CC(C)C(=Nc1ccc(F)c(Cl)c1)OCc1ccc(F)c(Oc2ccc(F)cc2)c1 [Compound 216] | 2 µg | 0.00018% | 0.005% | 0.0007% | 0.000007% | 0.00025% | 0.067 µg | 0.0017%
8 | CC(C)C(=Nc1ccc(F)c(Cl)c1)OCc1cccc(Oc2ccc(Cl)cc2)c1 [Compound 239] | 14 µg | 0.0005% | 0.025% | 0.005% | 0.00015% | 0.002% | > 2.5 µg | 0.006%
9 | CC(C)C(=Nc1ccc2c(c1)OC(F)(F)O2)OCc1cccc(Oc2ccc(F)cc2)c1 [Compound 244] | 14 µg | 0.00025% | > 0.1% | 0.002% | 0.00004% |  | 0.09 µg | 0.0025%
10 | CC(C)C(=Nc1ccc2c(c1)OC(F)(F)O2)OCc1cccc(Oc2ccccc2)c1 [Compound 245] | 20 µg | 0.0015% | 0.016% | 0.001% | 0.0035% |  | > 2.5 µg | 0.006%
11 | CC(C)C(=Nc1ccc(F)c(Cl)c1)OCc1ccc(F)c(Oc2ccc(Cl)cc2)c1 [Compound 267] | 8.4 µg | 0.0003% | 0.015% | 0.0012% | 0.00008% | 0.002% | 0.11 µg | 0.0027%
12 | CC(C)C(=Nc1ccc(F)c(I)c1)OCc1ccc(F)c(Oc2ccc(F)cc2)c1 [Compound 281] | 5 µg | 0.00025% | 0.006% | 0.0027% | 0.00002% |  | > 2.5 µg | 0.005%
13 | CC(C)C(=Nc1ccc2c(c1)OC(F)(F)O2)OCc1ccc(F)c(Oc2ccccc2)c1 [Compound 285] | 36 µg | 0.00017% | 0.005% | 0.0006% | 0.000075% |  | 0.13 µg | 0.005%
14 | CC(C)C(=Nc1ccc(F)c(Cl)c1F)OCc1cccc(Oc2ccc(Cl)cc2)c1 [Compound 331] | 20 µg | 0.0004% | 0.04% | 0.002% | 0.0002% |  | > 2.5 µg | 
15 | CC(C)C(=Nc1ccc(F)c(F)c1)OCc1ccc(F)c(Oc2ccccc2)c1 [Compound 336] | 3.6 µg | 0.0005% | 0.02% | 0.001% | 0.00017% |  | > 2.5 µg | 0.0091%
16 | CC(C)C(=Nc1ccc(C(F)(F)F)cc1)OCc1ccc(F)c(Oc2ccccc2)c1 [Compound 337] | 21 µg | 0.0005% | 0.008% | 0.0005% | 0.0007% |  | 0.067 µg | 0.0053%
17 | CC(C)C(=Nc1ccc(F)c(F)c1F)OCc1ccc(F)c(Oc2ccc(F)cc2)c1 [Compound 349] | 4.9 µg | 0.0004% | > 0.1% | > 0.1% | 0.00007% |  | > 2.5 µg | > 0.01%
